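Exposure lasted 48 hours, with cells grown in 96-well plates and compounds tested at five concentrations. At the GI50, growth is halved. TGI marks complete inhibition of growth.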
How the values were obtained:
Test in all cases: DTP human tumour cell line panel, 48 h
ACHN renal = test system: ACHN renal
HOP-62 NSCLC = test system: HOP-62 NSCLC
IGROV1 ovarian = test system: IGROV1 ovarian
MALME-3M melanoma = test system: MALME-3M melanoma
MOLT-4 leukemia = test system: MOLT-4 leukemia
OVCAR-4 ovarian = test system: OVCAR-4 ovarian
SF-295 CNS = test system: SF-295 CNS
SK-OV-3 ovarian = test system: SK-OV-3 ovarian
SN12C renal = test system: SN12C renal
UO-31 renal = test system: UO-31 renal

Structure (SMILES)	TGI (ACHN renal)	TGI (HOP-62 NSCLC)	TGI (IGROV1 ovarian)	TGI (MALME-3M melanoma)	TGI (MOLT-4 leukemia)	TGI (OVCAR-4 ovarian)	TGI (SF-295 CNS)	TGI (SK-OV-3 ovarian)	TGI (SN12C renal)	TGI (UO-31 renal)	GI50 (ACHN renal)	GI50 (HOP-62 NSCLC)	GI50 (IGROV1 ovarian)	GI50 (MALME-3M melanoma)	GI50 (MOLT-4 leukemia)	GI50 (OVCAR-4 ovarian)	GI50 (SF-295 CNS)	GI50 (SK-OV-3 ovarian)	GI50 (SN12C renal)	GI50 (UO-31 renal)
COC(=O)C(/C(=N\O)C(=O)Nc1ccc(Br)cc1)c1nc2ccccc2[nH]c1=O (centres undefined)	> 100 µM	92.6 µM	71.4 µM	> 100 µM	57.5 µM	> 100 µM	> 100 µM	> 100 µM	> 100 µM	> 100 µM										
CS(=O)(=O)CCNCc1ccoc1-c1ccc2ncnc(Nc3ccc(OCc4ccccc4)cc3)c2c1	> 25 µM	> 25 µM	> 25 µM	> 25 µM	> 25 µM	> 25 µM	> 25 µM	> 25 µM	> 25 µM	> 25 µM	> 25 µM	> 25 µM	> 17 µM	> 25 µM	20.1 µM	> 25 µM	> 25 µM	1.5 µM	> 25 µM	2.26 µM
COc1cc([C@@H]2c3cc4c(cc3[C@@H](NCc3cccc(F)c3)C3COC(=O)[C@@H]32)OCO4)cc(OC)c1O (some centres undefined)	4.61 µM	4.76 µM	17.5 µM	21.5 µM	5.59 µM	> 65 µM	> 65 µM	35.3 µM	12.8 µM	14.3 µM										
CCN(CC)CCNc1ccc([N+](=O)[O-])c2nc3ccc(OC)cc3c(N)c12	2.89 µM	3.74 µM	1.21 µM	3.61 µM	1.61 µM	1.91 µM	2.96 µM	3.58 µM	2.83 µM	3.13 µM										
COc1ccc(/C=C/C(=O)c2ccc(Nc3nc(Nc4ccc(F)cc4)nc(Nc4ccc(F)cc4)n3)cc2)cc1	> 100 µM	30 µM		46.6 µM	21.9 µM	> 100 µM	42.7 µM	88.4 µM	> 100 µM	31.9 µM	30.4 µM	13.1 µM		8.94 µM	3.11 µM	27.4 µM	14.2 µM	17.1 µM	55.1 µM	10.2 µM
CCOC(=O)C(=O)Nc1nc2ccc(C)cc2s1	> 100 µM	> 100 µM	> 100 µM	> 100 µM	> 100 µM	> 100 µM		> 100 µM	> 100 µM	> 100 µM										
CC/C(C)=C1\CCC(CN(C)C)C1=O (centres undefined)	33.2 µM	> 100 µM	36.8 µM	39.1 µM	70.9 µM	32 µM	> 100 µM		38.3 µM	35.4 µM										
Cc1nc(-n2nc(-c3ccccc3)cc2-c2ccccc2)sc1C(=O)/C=C/c1cccc([N+](=O)[O-])c1	> 100 µM	38.1 µM	92.2 µM	41.1 µM	22.4 µM		43.1 µM	> 100 µM	73.4 µM	23.7 µM										
N#CNC1=NCCC(=O)N1CCc1c[nH]c2ccccc12		> 100 µM	> 100 µM		> 100 µM	> 100 µM	> 100 µM	> 100 µM	> 100 µM	> 100 µM										
COc1cc(CCc2ccncc2)cc(OC)c1OC	> 100 µM	> 100 µM	> 100 µM	> 100 µM	> 100 µM	> 100 µM	> 100 µM		> 100 µM	> 100 µM										
CC(C)OP(=O)(OC(C)C)/C(C#N)=C/c1c[nH]c2ccccc12	> 100 µM	> 100 µM	> 100 µM	> 100 µM	> 100 µM	> 100 µM	> 100 µM	> 100 µM	> 100 µM											
C=C1C(=O)OC2(C)CCC1CC1OC1(C)CCC=C(C)CCC2O (centres undefined)	> 100 µM		> 100 µM	> 100 µM	> 100 µM	> 100 µM	> 100 µM	> 100 µM	> 100 µM	> 100 µM										
COc1ccc2c(c1)C=CC1C2CC[C@]2(C)C(NC(=O)/C=C/c3ccc(O)c(O)c3)CCC12 (some centres undefined)	19.8 µM	7.59 µM	24.7 µM		22.7 µM		70.3 µM		32.2 µM	27.3 µM	7.5 µM	1.21 µM	5.93 µM		5.56 µM		31.7 µM		13.6 µM	10.2 µM
O=C1/C(=C/c2ccc(O)cc2)Oc2ccccc21	> 100 µM	> 100 µM	> 100 µM	> 100 µM	> 100 µM	> 100 µM	> 100 µM	> 100 µM	> 100 µM											
C=CCO[C@H]1CC[C@@]2(C)C(CC[C@]3(C)C2CC=C2[C@@H]4[C@@H](C)C(C)CC[C@]4(C(=O)O)CCC23C)C1(C)C (some centres undefined)	29.8 µM	41 µM	33.9 µM	38.4 µM		39.3 µM	27.5 µM	31.7 µM	27.1 µM	31.2 µM										
CC(=O)OC1=C(CC(C)(C)C)C(=O)c2ccccc2C1=O	> 100 µM	> 100 µM	> 100 µM			> 100 µM	70.4 µM	66.2 µM		> 100 µM										
O=C1C(=Cc2ccc(F)cc2)C(=O)c2ccccc21	> 100 µM	> 100 µM	> 100 µM	> 100 µM	> 100 µM	> 100 µM	> 100 µM	> 100 µM		> 100 µM										
CCSc1nc(N)c2cnn(CC)c2n1		80.7 µM	9.13 µM	59 µM	> 100 µM	> 100 µM	> 100 µM	> 100 µM	26.1 µM	> 100 µM		20.1 µM	2.14 µM	18 µM	3.99 µM	49 µM	8.02 µM	23.9 µM	4.12 µM	7.24 µM
C/C(=N\Nc1n[nH]c(=S)n1N)c1c(O)cc(C)oc1=O	> 100 µM	> 100 µM		> 100 µM	> 100 µM	> 100 µM	> 100 µM	> 100 µM	> 100 µM	> 100 µM										
Cc1ccc([N+]2=NC(c3ccccc3)=NN(c3ccccc3)C2)cc1	> 100 µM	> 100 µM	> 100 µM	> 100 µM	> 100 µM	> 100 µM	> 100 µM		> 100 µM	> 100 µM										

From PubChem BioAssay (NCI)
